Source: the supplement of paper PMC10627819

Columns and labels:
B. subtilis 168 [1] = assay: fitness (endpoint OD595 vs no drug) (fraction); higher = more growth
How it was run: (§1)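 Fitness was defined as the optical density at the transition into stationary phase relative to the robust mean of no-drug control wells. Values were capped at 1. Cultures were started at OD595 0.01 in 384-well plates (30 µl, or 55 µl for S. pneumoniae) in TSB, LB Lennox or CY at 37 °C. OD595 was recorded every 30 min over 14 h, with the first reading subtracted as background.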

S. pneumoniae D39V [2] = assay: as above
How it was run: as §1

S. aureus Newman [3] = assay: as above
How it was run: as §1

S. aureus DSM 20231 [4] = assay: as above
How it was run: as §1

B. subtilis 168 [5] = assay: Bliss interaction score (quartile over a dose matrix) (fitness difference); higher = more antagonism (negative = synergy)
How it was run: (§2)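 At entry into stationary phase, OD595 was recorded and divided by the robust mean of the no-drug wells on that plate, with any value above 1 set to 1. This gives the fitness measure used throughout. Single-drug fitness was inferred from combination data, and the Bliss score, observed minus product-expected fitness, is shown as quartiles across technical, biological and donor/recipient replicates.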

S. pneumoniae D39V [6] = assay: as above
How it was run: as §2

S. aureus Newman [7] = assay: as above
How it was run: as §2

S. aureus DSM 20231 [8] = assay: as above
How it was run: as §2
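Wherever Bliss interaction score (quartile over a dose matrix) is given: first quartile when negative (synergy) and third quartile when positive (antagonism).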

Cc1onc(-c2ccccc2)c1C(=O)N[C@@H]1C(=O)N2[C@@H]1SC(C)(C)[C@@H]2C(=O)O [Oxacillin] + CN[C@@H]1[C@H](O)[C@H](NC)[C@H]2O[C@@]3(O)C(=O)C[C@@H](C)O[C@H]3O[C@@H]2[C@H]1O [Spectinomycin]
fitness
Conditions | partner 2 µg/mL | partner 4 µg/mL | partner 8 µg/mL | partner 16 µg/mL
B. subtilis 168 [1], first compound 0.002 µg/mL | 0.966 | 0.984 | 0.899 | –
B. subtilis 168 [1], first compound 0.004 µg/mL | ≥ 1 | ≥ 1 | 0.874 | –
B. subtilis 168 [1], first compound 0.008 µg/mL | 0.982 | 0.993 | 0.87 | –
S. aureus DSM 20231 [4], first compound 0.0156 µg/mL | – | 0.779 | 0.802 | 0.764
S. aureus DSM 20231 [4], first compound 0.0312 µg/mL | – | 0.681 | 0.684 | 0.665
S. aureus DSM 20231 [4], first compound 0.0625 µg/mL | – | 0.482 | 0.497 | 0.489
S. aureus Newman [3], first compound 0.0156 µg/mL | – | 0.757 | 0.751 | 0.766
S. aureus Newman [3], first compound 0.0312 µg/mL | – | 0.688 | 0.672 | 0.586
S. aureus Newman [3], first compound 0.0625 µg/mL | – | 0.596 | 0.555 | 0.528
S. pneumoniae D39V [2], first compound 0.01 µg/mL | – | 0.94 | 0.93 | 0.819
S. pneumoniae D39V [2], first compound 0.02 µg/mL | – | 0.884 | 0.889 | 0.788
S. pneumoniae D39V [2], first compound 0.04 µg/mL | – | 0.373 | 0.455 | 0.415

fitness, one replicate
Conditions | first compound 0.0156 µg/mL | first compound 0.0312 µg/mL | first compound 0.0625 µg/mL | first compound 0.075 µg/mL | first compound 0.15 µg/mL | first compound 0.3 µg/mL
B. subtilis 168 [1], partner 2 µg/mL | – | – | – | 0.467 | 0.0332 | 0.0357
B. subtilis 168 [1], partner 4 µg/mL | – | – | – | 0.394 | 0.034 | 0.0431
B. subtilis 168 [1], partner 8 µg/mL | – | – | – | 0.0241 | 0.0342 | 0.0299
S. aureus DSM 20231 [4], partner 32 µg/mL | 0.601 | 0.628 | 0.509 | – | – | –
S. aureus DSM 20231 [4], partner 64 µg/mL | 0.0615 | 0.0592 | 0.0362 | – | – | –
S. aureus Newman [3], partner 32 µg/mL | 0.483 | 0.272 | 0.135 | – | – | –
S. aureus Newman [3], partner 64 µg/mL | 0.0551 | 0.0867 | 0.0035 | – | – | –

Conditions | Bliss interaction score
B. subtilis 168 [5] | 0.0285
S. aureus DSM 20231 [8] | -0.0526
S. aureus Newman [7] | -0.0743
S. pneumoniae D39V [6] | 0.0929

Cc1onc(-c2ccccc2)c1C(=O)N[C@@H]1C(=O)N2[C@@H]1SC(C)(C)[C@@H]2C(=O)O [Oxacillin] + COc1ccc(C[C@H](N)C(=O)N[C@H]2[C@@H](O)[C@H](n3cnc4c(N(C)C)ncnc43)O[C@@H]2CO)cc1 [Puromycin]
Conditions | fitness
B. subtilis 168 [1], first compound 0.002 µg/mL, partner 0.39 µg/mL | 0.98
B. subtilis 168 [1], first compound 0.002 µg/mL, partner 0.78 µg/mL | 0.966
B. subtilis 168 [1], first compound 0.002 µg/mL, partner 1.56 µg/mL | 0.932
B. subtilis 168 [1], first compound 0.004 µg/mL, partner 0.39 µg/mL | 0.974
B. subtilis 168 [1], first compound 0.004 µg/mL, partner 0.78 µg/mL | 0.914
B. subtilis 168 [1], first compound 0.004 µg/mL, partner 1.56 µg/mL | 0.9
B. subtilis 168 [1], first compound 0.008 µg/mL, partner 0.39 µg/mL | 0.88
B. subtilis 168 [1], first compound 0.008 µg/mL, partner 0.78 µg/mL | 0.879
B. subtilis 168 [1], first compound 0.008 µg/mL, partner 1.56 µg/mL | 0.864
S. aureus DSM 20231 [4], first compound 0.0156 µg/mL, partner 0.39 µg/mL | 0.84
S. aureus DSM 20231 [4], first compound 0.0156 µg/mL, partner 0.78 µg/mL | 0.902
S. aureus DSM 20231 [4], first compound 0.0156 µg/mL, partner 1.56 µg/mL | 0.91
S. aureus DSM 20231 [4], first compound 0.0312 µg/mL, partner 0.39 µg/mL | 0.72
S. aureus DSM 20231 [4], first compound 0.0312 µg/mL, partner 0.78 µg/mL | 0.737
S. aureus DSM 20231 [4], first compound 0.0312 µg/mL, partner 1.56 µg/mL | 0.748
S. aureus DSM 20231 [4], first compound 0.0625 µg/mL, partner 0.39 µg/mL | 0.481
S. aureus DSM 20231 [4], first compound 0.0625 µg/mL, partner 0.78 µg/mL | 0.555
S. aureus DSM 20231 [4], first compound 0.0625 µg/mL, partner 1.56 µg/mL | 0.546
S. aureus Newman [3], first compound 0.0156 µg/mL, partner 0.78 µg/mL | 0.85
S. aureus Newman [3], first compound 0.0156 µg/mL, partner 1.56 µg/mL | 0.806
S. aureus Newman [3], first compound 0.0312 µg/mL, partner 0.39 µg/mL | 0.765
S. aureus Newman [3], first compound 0.0312 µg/mL, partner 0.78 µg/mL | 0.788
S. pneumoniae D39V [2], first compound 0.01 µg/mL, partner 1 µg/mL | ≥ 1
S. pneumoniae D39V [2], first compound 0.01 µg/mL, partner 2 µg/mL | 0.969
S. pneumoniae D39V [2], first compound 0.01 µg/mL, partner 4 µg/mL | 0.918
S. pneumoniae D39V [2], first compound 0.02 µg/mL, partner 1 µg/mL | 0.984
S. pneumoniae D39V [2], first compound 0.02 µg/mL, partner 2 µg/mL | 0.949
S. pneumoniae D39V [2], first compound 0.02 µg/mL, partner 4 µg/mL | 0.863
S. pneumoniae D39V [2], first compound 0.04 µg/mL, partner 1 µg/mL | 0.668
S. pneumoniae D39V [2], first compound 0.04 µg/mL, partner 2 µg/mL | 0.644
S. pneumoniae D39V [2], first compound 0.04 µg/mL, partner 4 µg/mL | 0.281

fitness, one replicate
Conditions | first compound 0.0156 µg/mL | first compound 0.0312 µg/mL | first compound 0.0625 µg/mL | first compound 0.075 µg/mL | first compound 0.15 µg/mL | first compound 0.3 µg/mL
B. subtilis 168 [1], partner 0.39 µg/mL | – | – | – | 0.523 | 0.0695 | 0.0402
B. subtilis 168 [1], partner 0.78 µg/mL | – | – | – | 0.645 | 0.0521 | 0.0336
B. subtilis 168 [1], partner 1.56 µg/mL | – | – | – | 0.632 | 0.0547 | 0.0573
S. aureus DSM 20231 [4], partner 3.12 µg/mL | 0.887 | 0.788 | 0.66 | – | – | –
S. aureus DSM 20231 [4], partner 6.24 µg/mL | 0.609 | 0.606 | 0.548 | – | – | –

Conditions | Bliss interaction score
B. subtilis 168 [5] | 0.0568
S. aureus DSM 20231 [8] | 0.0572
S. aureus Newman [7] | 0.0763
S. pneumoniae D39V [6] | 0.167
